Among the data in PubChem BioAssay (NCI) are GI50 and TGI values, retold here.

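All cell lines were grown in 96-well plates and treated with compound for 48 hours. GI50: concentration for 50% inhibition of growth. The concentration for full growth arrest is given as TGI.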 Some results are limits rather than exact numbers.

Test systems include BT-549 breast; MDA-MB-231 breast; NCI/ADR-RES ovarian; T-47D breast.
Holding throughout (assay): inhibition of tumour cell growth, NCI panel, 48 h

For the compound `COc1ccc(/C=C/c2n[nH]c3ccc(N4CCOC4=O)cc23)cc1`, the GI50 is 1.14 µM in the assay on BT-549 breast, 2.98 µM in the assay on MDA-MB-231 breast, 2.99 µM in the assay on NCI/ADR-RES ovarian and 3.01 µM with T-47D breast. Moreover, the TGI with BT-549 breast turned out to be 5.32 µM; with MDA-MB-231 breast, 9.8 µM; with NCI/ADR-RES ovarian, 40.2 µM; in the assay with T-47D breast, 8.56 µM.
In the case of `COC1=CC(c2ccc[nH]2)=N/C1=C\c1[nH]c(C)c(C(=O)CCCCC(=O)Nc2ccccc2)c1C`, the GI50 with BT-549 breast was 1.77 µM; with MDA-MB-231 breast it was 0.396 µM; with NCI/ADR-RES ovarian, 1.89 µM; in the assay with T-47D breast, 1.99 µM. The TGI was 13.4 µM with BT-549 breast, 1.95 µM in the assay with MDA-MB-231 breast, 3.69 µM in the assay with NCI/ADR-RES ovarian and 6.14 µM in the assay with T-47D breast.
Regarding `NS(=O)(=O)c1ccc(N2N=C3c4ccccc4CC3C2c2ccc(Cl)cc2)cc1` (configuration not stated), the figures for the GI50 in the assay with MDA-MB-231 breast, in the assay on NCI/ADR-RES ovarian and in the assay on T-47D breast were 2.89 µM, 10.3 µM and 32.9 µM, respectively. Also, the TGI is 8.24 µM in the assay with MDA-MB-231 breast, 38.5 µM in the assay on NCI/ADR-RES ovarian and more than 100 µM with T-47D breast.
Turning to `COc1cc(/C=C2\COc3ccc(O)c(O)c3C2=O)cc(OC)c1`, the GI50 in the assay with BT-549 breast is 1.56 µM; in the assay with MDA-MB-231 breast, 2.47 µM; in the assay on NCI/ADR-RES ovarian, 2.24 µM; in the assay on T-47D breast it was 1.45 µM. The TGI turned out to be 4.97 µM in the assay on BT-549 breast, 10.6 µM in the assay with MDA-MB-231 breast, 46.5 µM in the assay on NCI/ADR-RES ovarian and 8 µM with T-47D breast.
Regarding `N#Cc1ccnc(N2C(=O)CC[C@H]2C(=O)N(c2cncc(F)c2)[C@H](C(=O)NC2CC(F)(F)C2)c2ccccc2Cl)c1`, the GI50 is more than 100 µM with BT-549 breast, 50.7 µM with MDA-MB-231 breast, more than 100 µM in the assay with NCI/ADR-RES ovarian and more than 100 µM in the assay with T-47D breast. Also, the TGI with BT-549 breast, with MDA-MB-231 breast, with NCI/ADR-RES ovarian and with T-47D breast was more than 100 µM in each case.
On to `CCOC(=O)c1sc(Nc2ccc(Cl)cc2)nc1C`, for which the GI50 with BT-549 breast is 1.48 µM; in the assay with MDA-MB-231 breast it was 1.08 µM; in the assay on NCI/ADR-RES ovarian, 1.78 µM. The values for the TGI with BT-549 breast, in the assay with MDA-MB-231 breast and in the assay on NCI/ADR-RES ovarian were 3.29 µM, 2.61 µM and 4.08 µM, respectively.
On to `CCCCCCCC[N+](C)(CCCCCCCC)CCCCCCCC`, for which the GI50 is 0.309 µM in the assay with BT-549 breast, 0.338 µM in the assay with MDA-MB-231 breast, 1.51 µM with NCI/ADR-RES ovarian and 0.258 µM in the assay on T-47D breast. Further, the TGI amounted to 0.977 µM in the assay with BT-549 breast, 1.26 µM in the assay on MDA-MB-231 breast, 3.23 µM with NCI/ADR-RES ovarian and 1.73 µM with T-47D breast.
As for `C[C@@H]1C=C2C(=O)O[C@@H]3CC[C@H](C1)[C@]23O`, the GI50 with BT-549 breast is 4.4 µM; in the assay on MDA-MB-231 breast, 3.96 µM; with NCI/ADR-RES ovarian it was 11.9 µM; with T-47D breast, 3.02 µM. The TGI with BT-549 breast was found to be 17.3 µM; in the assay on MDA-MB-231 breast, 17.4 µM; in the assay with NCI/ADR-RES ovarian it was 95.8 µM; in the assay on T-47D breast, 15.1 µM.
Take `Cc1[nH]c(=O)[nH]c(=O)c1CO`: the GI50 in the assay on BT-549 breast, with MDA-MB-231 breast, in the assay with NCI/ADR-RES ovarian and in the assay on T-47D breast was more than 100 µM each time. Also, the TGI in the assay with BT-549 breast, in the assay on MDA-MB-231 breast, with NCI/ADR-RES ovarian and in the assay with T-47D breast was more than 100 µM each time.
With `Cc1ccc(C)c(-c2csc(Nc3ccc(C)c(C)c3)n2)c1`, the GI50 in the assay on BT-549 breast, in the assay on MDA-MB-231 breast, with NCI/ADR-RES ovarian and in the assay with T-47D breast was more than 100 µM throughout. In addition, the TGI with BT-549 breast, in the assay with MDA-MB-231 breast, in the assay with NCI/ADR-RES ovarian and in the assay with T-47D breast was more than 100 µM each time.
For `COC(=O)C1=C(C(=O)OC)C23C=C(C)C1C2=C(C)C1(CC1)[C@@](C)(O)C3=O` (some centres not stated), the GI50 with BT-549 breast is 0.404 µM; in the assay with MDA-MB-231 breast, 0.309 µM; in the assay on NCI/ADR-RES ovarian, 0.303 µM; with T-47D breast, 0.515 µM. In addition, the TGI in the assay with BT-549 breast came to 3.3 µM; with MDA-MB-231 breast it was 1.56 µM; with NCI/ADR-RES ovarian it was 4.24 µM; with T-47D breast, 6.4 µM.
In the case of `C[C@H]1[C@H](C)CC[C@]2(C(=O)O)CC[C@]3(C)C(=CC[C@@H]4[C@@]5(C)C/C(=C/c6ccco6)C(=O)C(C)(C)[C@@H]5CC[C@]43C)[C@H]12`, the GI50 with BT-549 breast was 4.76 µM; in the assay with MDA-MB-231 breast it was 6.72 µM; in the assay with NCI/ADR-RES ovarian it was 3.84 µM; in the assay on T-47D breast, 3.79 µM. In addition, the TGI in the assay with BT-549 breast worked out at 18.9 µM; in the assay with MDA-MB-231 breast, 24.1 µM; with NCI/ADR-RES ovarian, 16.1 µM; with T-47D breast it was 33.8 µM.
In the case of `C=C(C)[C@@H]1CC[C@]2(C)[C@H](CC[C@@H]3[C@H]4[C@H]5OC[C@@]4(CCC5(C)C)CC[C@]32C)[C@@]1(C)CCCN`, the GI50 with BT-549 breast was 1.67 µM; in the assay on MDA-MB-231 breast, 1.84 µM; in the assay on NCI/ADR-RES ovarian it was 1.95 µM; in the assay on T-47D breast, 1.88 µM. Besides, the TGI came out at 3.12 µM in the assay on BT-549 breast, 3.54 µM with MDA-MB-231 breast, 3.89 µM with NCI/ADR-RES ovarian and 4.21 µM in the assay on T-47D breast.
With `COc1cc(-c2cc(-c3nc4ccc(Cl)cc4[nH]3)[nH]n2)cc(OC)c1OC`, the results for the GI50 in the assay on BT-549 breast, in the assay on MDA-MB-231 breast and with T-47D breast were 2.54 µM, 3.94 µM and 1.58 µM, respectively. Also, the TGI came to 8.35 µM in the assay with BT-549 breast, 24.3 µM in the assay with MDA-MB-231 breast and 4.54 µM in the assay on T-47D breast.
For the compound `COC1=CC(c2ccc[nH]2)=N/C1=C\c1ccc[nH]1`, the GI50 with BT-549 breast is 0.145 µM; in the assay with MDA-MB-231 breast, 0.11 µM; in the assay on NCI/ADR-RES ovarian, 0.304 µM; in the assay with T-47D breast, 0.151 µM. The TGI with BT-549 breast is 5.71 µM; in the assay with MDA-MB-231 breast it was 14.6 µM; in the assay with NCI/ADR-RES ovarian it was 13.8 µM; in the assay on T-47D breast it was 1.77 µM.
Regarding `Nc1c(C(=O)Nc2ccccc2Cl)sc2nc3c(cc12)CCCCCC3`, the GI50 with BT-549 breast was 3.64 µM; with MDA-MB-231 breast, 2.24 µM; with NCI/ADR-RES ovarian, 2.82 µM; in the assay with T-47D breast, 3.88 µM. Moreover, the TGI is 29.1 µM in the assay with BT-549 breast, 14.1 µM in the assay with MDA-MB-231 breast, 25.4 µM in the assay with NCI/ADR-RES ovarian and 17.2 µM in the assay on T-47D breast.
